Reference: US7906551B2 (Rottapharm S.p.A., priority 2006, dated 2011)
Read-outs that look alike come from different tables or passages of the source. Values belong to the molecule of their own block, whether it stands above or below them.

What was measured:
[1] = target: T1, COX-1 (Mus musculus, UniProt P22437); assay: Assessment of COX-1 activity in J774 cells (arachidonic acid, PGE2 radioimmunoassay); format: cell-based, murine
T1 construct: endogenous in cells; host or cells: J774 murine monocyte/macrophage cell line
T1 sequence (P22437 27-602): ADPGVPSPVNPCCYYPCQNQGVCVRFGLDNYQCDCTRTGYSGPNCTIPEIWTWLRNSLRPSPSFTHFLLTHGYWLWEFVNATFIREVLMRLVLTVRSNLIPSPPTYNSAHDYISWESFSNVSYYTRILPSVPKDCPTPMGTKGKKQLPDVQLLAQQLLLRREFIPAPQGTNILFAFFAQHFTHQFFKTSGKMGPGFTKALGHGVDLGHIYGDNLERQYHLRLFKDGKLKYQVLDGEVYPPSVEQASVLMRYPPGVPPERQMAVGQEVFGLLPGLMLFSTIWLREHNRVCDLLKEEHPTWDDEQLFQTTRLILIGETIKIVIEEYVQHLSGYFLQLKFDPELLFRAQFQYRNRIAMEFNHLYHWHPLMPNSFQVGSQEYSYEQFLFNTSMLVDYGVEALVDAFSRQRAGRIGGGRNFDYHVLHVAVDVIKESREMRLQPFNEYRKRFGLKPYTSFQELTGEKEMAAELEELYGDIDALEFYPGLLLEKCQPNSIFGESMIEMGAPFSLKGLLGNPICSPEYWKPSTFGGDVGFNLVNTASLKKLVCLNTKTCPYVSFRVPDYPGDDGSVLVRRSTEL
Procedure: Stock solutions of the reference standard or of the test compounds were prepared in dimethyl sulphoxide, and an equivalent amount of dimethyl sulphoxide was included in control samples. At the end of the incubation the supernatants were collected for the measurement of PGE2 by radioimmunoassay.
(§1) Analysis. Throughout the time the experiments lasted, triplicate wells were used for the various conditions of treatment. Results are expressed as the mean, for 3 experiments, of the % inhibition of PGE2 production by test compounds with respect to control samples. Data fit was obtained using the sigmoidal dose-response equation (variable slope). The IC50 were calculated by GraphPad Instat program (GraphPad software).

[2] = target: T2, COX-2 (Mus musculus, UniProt Q05769); assay: Assessment of COX-2 activity in LPS-stimulated J774 cells (PGE2 radioimmunoassay); format: cell-based, murine; conditions: for COX-1/COX-2 Selectivity Index (IC50 ratio): Table 6, Formula Ib
T2 construct: lipopolysaccharide (LPS, 10 μg/mL) to induce COX-2; endogenous in cells; host or cells: J774 murine monocyte/macrophage cell line, LPS-stimulated
T2 sequence (Q05769 18-604): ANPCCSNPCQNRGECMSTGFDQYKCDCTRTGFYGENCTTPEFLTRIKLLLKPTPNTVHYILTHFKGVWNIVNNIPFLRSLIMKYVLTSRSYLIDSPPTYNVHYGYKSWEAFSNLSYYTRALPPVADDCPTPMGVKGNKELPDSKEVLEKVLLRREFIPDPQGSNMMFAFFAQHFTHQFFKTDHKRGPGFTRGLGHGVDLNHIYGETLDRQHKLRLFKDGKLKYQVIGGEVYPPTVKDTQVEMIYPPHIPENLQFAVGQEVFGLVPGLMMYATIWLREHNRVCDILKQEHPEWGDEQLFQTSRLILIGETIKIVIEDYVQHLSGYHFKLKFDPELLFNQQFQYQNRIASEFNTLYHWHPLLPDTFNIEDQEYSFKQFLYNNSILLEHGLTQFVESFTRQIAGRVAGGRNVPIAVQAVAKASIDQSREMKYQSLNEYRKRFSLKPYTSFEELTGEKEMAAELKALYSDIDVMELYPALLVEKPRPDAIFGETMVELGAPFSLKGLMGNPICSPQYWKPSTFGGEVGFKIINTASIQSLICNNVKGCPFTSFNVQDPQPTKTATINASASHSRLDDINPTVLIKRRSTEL
Procedure: Cells were stimulated for 24 h with E. coli lipopolysaccharide (LPS, 10 μg/mL) to induce COX-2, in the absence or presence of test compounds, at the concentrations previously reported. The supernatants were collected for the measurement of PGE2 by radioimmunoassay.
as §1

[3] = tested on: rat model of edema induced by carragenine; assay: Carrageenan-induced paw edema; format: in vivo; conditions: 1 h, 20 mg/Kg, read-out: Edema inhibition 60 min, MPE
Procedure: (§2) Male Swiss albino mice (23-25 g) and Sprague Dawley or Wistar rats (150-200 g) were used. The animals were fed a standard laboratory diet and tap water ad libitum and kept at 23±1° C. with a 12 h light/dark cycle, light on at 7 a.m.
Rats paw volumes were measured using a plethysmometer. Rats received the investigated compounds 4 hours after a 0.1-ml injection of 1.0% carrageenan in the right hind paw. Five hours after the injection of carrageenan (i.e. 1 hour after the administration of the investigated compound), the paw volume of the right hind paw was measured and compared with saline/carrageenan-treated controls. Results are reported as maximum percent effect (MPE), see below for detailed explanation.

[4] = tested on: rat model of hyperalgesia induced by carragenine; assay: Paw pressure test, hyperalgesia induced by carragenine; format: in vivo; conditions: 20 mg/Kg
Procedure: as §2
The nociceptive threshold in the rat was determined with an analgesimeter, according to the method described by Leighton et al, G. E.; Br. J. Pharmacol. 1988, 93, 553-560. Threshold pressure was measured before and 30, 60 and 120 min after treatment. An arbitrary cut-off value of 250 g was adopted. In order to induce an inflammatory process in the rat paw carrageenan (0.1 ml, 1%) was administered i.p. 4 h before test.

[5] = Table 8, Formula I-c, read-out: COX-2 IC50
[6] = Table 9, Formula I-d, read-out: COX-2 IC50
[7] = 0.5 h, Table 10, 30 min, read-out: Analgesia 30 min MPE
[8] = 1 h, Table 10, 60 min, read-out: Analgesia 60 min MPE

IC50 ([1]; Table 11, Formula I-e): > 100 µM
COX-2 % of inhibition at 1.10^−5 M [2]: 86%
SMILES: CCCC(=O)OCCc1cc(-c2ccc(S(C)(=O)=O)cc2)n(-c2ccc(F)cc2)c1C [Example 30, 2-(1-(4-fluorophenyl)-2-methyl-5-(4-methylsulphonyl)phenyl-1H-pyrrol-3-yl)ethyl butanoate]

IC50 ([1]; Table 8, Formula I-c): > 100 µM
IC50 [2, 5]: 0.19 µM
SMILES: CCNC(=O)Cc1cc(-c2ccc(S(C)(=O)=O)cc2)n(-c2ccc(C(F)(F)F)cc2)c1C [Example 18, N-Ethyl-[2-methyl-5-(4-methylsulphonyl)phenyl-1-(4-trifluoromethyl)phenyl-1H-pyrrol-3-yl]acetamide]

IC50 ([1]; Table 11, Formula I-e): > 100 µM
COX-2 % of inhibition at 1.10^−5 M [2]: 97%
SMILES: CCC(=O)OCCc1cc(-c2ccc(S(C)(=O)=O)cc2)n(-c2ccc(F)cc2)c1C [Example 29, 2-(1-(4-Fluorophenyl)-2-methyl-5-(4-methylsulphonyl)phenyl-1H-pyrrol-3-yl)ethyl propionate]

IC50 ([1]; Table 8, Formula I-c): > 100 µM
IC50 [2, 5]: 0.35 µM
SMILES: CCNC(=O)Cc1cc(-c2ccc(S(C)(=O)=O)cc2)n(-c2ccccc2)c1C [Example 14, N-Ethyl-[2-methyl-5-(4-methylsulphonyl)phenyl-1-phenyl-1H-pyrrol-3-yl]acetamide]

selectivity [2]: > 10000
IC50 ([2]; read-out: in vitro COX-2 inhibitory potency IC50): 0.01 µM
SMILES: CCOC(=O)Cc1cc(-c2ccc(S(C)(=O)=O)cc2)n(-c2cccc(F)c2)c1C [Compound 4b, Ethyl 2-[1-(3-fluoro)phenyl-2-methyl-5-(4-methylsulphonyl)phenyl-1H-pyrrol-3-yl]acetate, reference compound]
inhibition in vivo at 20 mg/kg ([3]; 60 min): 30%
inhibition in vivo at 20 mg/kg ([4]; 0.5 h, 30 min, read-out: Analgesia 30 min MPE): 28%
inhibition in vivo at 20 mg/kg ([4]; 1 h, 60 min, read-out: Analgesia 60 min MPE): 40%

IC50 ([1]; Table 8, Formula I-c): > 100 µM
IC50 [2, 5]: 0.17 µM
SMILES: Cc1c(CC(=O)N(C)Cc2ccccc2)cc(-c2ccc(S(C)(=O)=O)cc2)n1-c1ccccc1 [Example 16, N-Benzyl-N-methyl-[2-methyl-5-(4-methylsulphonyl)phenyl-1-phenyl-1H-pyrrol-3-yl]acetamide]

IC50 ([1]; Table 8, Formula I-c): > 100 µM
IC50 [2, 5]: 0.47 µM
SMILES: Cc1c(CC(=O)N(C)Cc2ccccc2)cc(-c2ccc(S(C)(=O)=O)cc2)n1-c1ccc(C(F)(F)F)cc1 [Example 19, N-Benzyl-N-methyl-[2-methyl-5-(4-methylsulphonyl)phenyl-1-(4-trifluoromethyl)phenyl-1H-pyrrol-3-yl]acetamide]

IC50 ([1]; Table 11, Formula I-e): > 100 µM
COX-2 % of inhibition at 1.10^−5 M [2]: 76%
SMILES: Cc1c(CCOC(=O)c2ccccc2)cc(-c2ccc(S(C)(=O)=O)cc2)n1-c1ccc(F)cc1 [Example 31, 2-(1-(4-fluorophenyl)-2-methyl-5-(4-methylsulphonyl)phenyl-1H-pyrrol-3-yl)ethyl benzoate]

IC50 ([1]; Table 11, Formula I-e): > 100 µM
COX-2 % of inhibition at 1.10^−5 M [2]: 64%
SMILES: Cc1c(CCOC(=O)c2ccccc2F)cc(-c2ccc(S(C)(=O)=O)cc2)n1-c1ccc(F)cc1 [Example 32, 2-(1-(4-fluorophenyl)-2-methyl-5-(4-methylsulphonyl)phenyl-1H-pyrrol-3-yl)ethyl 2-fluorobenzoate]

IC50 ([1]; Table 8, Formula I-c): > 100 µM
IC50 [2, 5]: 0.09 µM
SMILES: CNC(=O)Cc1cc(-c2ccc(S(C)(=O)=O)cc2)n(-c2ccc(C(F)(F)F)cc2)c1C [Example 17, N-Methyl-[2-methyl-5-(4-methylsulphonyl)phenyl-1-(4-trifluoromethyl)phenyl-1H-pyrrol-3-yl]acetamide]

COX-1/COX-2 Selectivity Index (IC50 ratio) [2]: >1300
SMILES: CCOC(=O)C(O)c1cc(-c2ccc(S(C)(=O)=O)cc2)n(-c2cccc(F)c2)c1C (single isomer, unassigned; (+)) [Example 9a, (+)-Ethyl[2-hydroxy-2-[1-(3-fluoro)phenyl-2-methyl-5-(4-methylsulphonyl)phenyl-1H-pyrrol-3-yl]]acetate]

More lines, now with the values behind:

SMILES: CCOC(=O)C(O)c1cc(-c2ccc(S(C)(=O)=O)cc2)n(-c2cccc(F)c2)c1C (single isomer, unassigned; (-)) [Example 9b, (−)-Ethyl[2-hydroxy-2-[1-(3-fluoro)phenyl-2-methyl-5-(4-methylsulphonyl)phenyl-1H-pyrrol-3-yl]]acetate]
COX-1/COX-2 Selectivity Index (IC50 ratio) [2]: >650

SMILES: Cc1c(CCOC(=O)c2cccs2)cc(-c2ccc(S(C)(=O)=O)cc2)n1-c1ccc(F)cc1 [Example 34, 2-(1-(4-fluorophenyl)-2-methyl-5-(4-methylsulphonyl)phenyl-1H-pyrrol-3-yl)ethyl 2-tiophencarboxylate]
IC50 ([1]; Table 11, Formula I-e): > 100 µM
COX-2 % of inhibition at 1.10^−5 M [2]: 69%

SMILES: COCCc1cc(-c2ccc(S(C)(=O)=O)cc2)n(-c2ccc(C(F)(F)F)cc2)c1C [Example 26, [2-Methyl-5-(4-methylsulphonyl)phenyl-3-(2-methoxyethyl)-1-(4-trifluoromethyl)phenyl]-1H-pyrrole]
IC50 ([1]; Table 9, Formula I-d): > 100 µM
IC50 [2, 6]: 0.049 µM

SMILES: CCCOCCc1cc(-c2ccc(S(C)(=O)=O)cc2)n(-c2ccccc2)c1C [Example 22, [2-Methyl-5-(4-methylsulphonyl)phenyl-1-phenyl-3-(2-n-propyloxyethyl)]-1H-pyrrole]
inhibition in vivo at 20 mg/kg ([3]; Table 10, 60 min): 43%
inhibition in vivo at 20 mg/kg [4, 7]: 88%
inhibition in vivo at 20 mg/kg [4, 8]: 94%

SMILES: CCCOCCc1cc(-c2ccc(S(C)(=O)=O)cc2)n(-c2ccc(F)cc2)c1C [Example 25, [1-(4-Fluoro)phenyl-2-methyl-5-(4-methylsulphonyl)phenyl-3-(2-n-propyloxyethyl)]-1H-pyrrole]
inhibition in vivo at 20 mg/kg ([3]; Table 10, 60 min): 41%
inhibition in vivo at 20 mg/kg [4, 7]: 53%
inhibition in vivo at 20 mg/kg [4, 8]: 70%

SMILES: Cc1c(CCOC(=O)c2ccc(F)cc2)cc(-c2ccc(S(C)(=O)=O)cc2)n1-c1ccc(F)cc1 [Example 33, 2-(1-(4-fluorophenyl)-2-methyl-5-(4-methylsulphonyl)phenyl-1H-pyrrol-3-yl)ethyl 4-fluorobenzoate]
IC50 ([1]; Table 11, Formula I-e): > 100 µM
COX-2 % of inhibition at 1.10^−5 M [2]: 69%

SMILES: CCOCCc1cc(-c2ccc(S(C)(=O)=O)cc2)n(-c2ccccc2)c1C [Example 21, [3-(2-Ethoxyethyl)-2-methyl-5-(4-methylsulphonyl)phenyl-1-phenyl]-1H-pyrrole]
inhibition in vivo at 20 mg/kg ([3]; Table 10, 60 min): 45%
inhibition in vivo at 20 mg/kg [4, 7]: 96%
inhibition in vivo at 20 mg/kg [4, 8]: 72%

SMILES: COCCc1cc(-c2ccc(S(C)(=O)=O)cc2)n(-c2ccc(F)cc2)c1C [Example 23, [1-(4-Fluoro)phenyl-2-methyl-5-(4-methylsulphonyl)phenyl-3-(2-methoxyethyl)]-1H-pyrrole]
IC50 ([1]; Table 9, Formula I-d): > 100 µM
IC50 [2, 6]: 0.018 µM
